Test results: PMC11219871, “Epigenetic-based differentiation therapy for Acute Myeloid Leukemia” (Nature Communications, 2024)
“And” between values parts separate entries of the source, which are not always exact repeats. Identical values can stand only once.

Assays:
[1] = tested on: MV4-11; assay: Differentiation-apoptosis assay, CD11b / annexin-V / Sytox Green / myeloid markers flow cytometry; format: cell-based, human; parameters: Cell viability (%): concentration or dose not given beside the values; CD11b levels: unit not given here
In short: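 Cells washed in PBS, resuspended at 1 × 10^6 cells/mL in binding buffer and stained with APC-CD11b and FITC annexin-V for 15 min at room temperature in the dark, then read by flow cytometry. Other runs used a CD13/HLA-DR/CD14 antibody panel, 30 min staining, then red-cell lysis and washes.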

[2] = tested on: primary AML patient samples; assay: Differentiation assay, CD11b flow cytometry in primary samples; format: cell-based, human; conditions: for CD11b-positive cells (%): daily 48 h
Method: (§1) Next, the cells were washed twice with phosphate-buffered saline (PBS) and resuspended in 1X Binding Buffer at a concentration of 1 × 10^6 cells/mL. An 8-µL aliquot of APC-CD11b (BD Pharmingen, Franklin Lakes, NJ, USA) and 1 µL of FITC annexin-V (AV) (BD Pharmingen, Franklin Lakes, NJ, USA) antibodies were added and incubated for 15 min at room temperature in the dark. Finally, after the addition of 400 µL of 1X Binding Buffer to each tube, samples were collected on a BD FACSCanto flow cytometer (Becton Dickinson, San Jose, CA, USA) and analyzed using FlowJo software.
Peripheral blood (PB) specimens were obtained from preliminarily diagnosed AML patients who had not received any treatment before specimens were collected. All patients gave informed consent for their participation in this study, which was approved by the Clinical Research Ethics Committee of Clínica Universidad de Navarra. Written informed consent was obtained from each participant. PB was mixed with an ammonium chloride-potassium (ACK) buffer lysis (0.15 mol/L NH4Cl, 10 mmol/L KHCO3, 0.1 mmol/L ethylenediaminetetraacetic acid, pH 7.2) at a 1:2 volume ratio by gentle inversion, incubated for 10 min and centrifuged at 200 g for 10 min. The cell pellet was washed twice with PBS and finally resuspended in EGM2 medium (Cambrex Bioscience, Walkersville, MD). EGM2 contains 2% fetal calf serum, hydrocortisone, heparin, antibiotics, epidermal growth factor, human fibroblast growth factor, insulin-like growth factor, vascular endothelial growth factor, and ascorbic acid. The cells were plated at 1 × 10^6 cells/mL and treated daily with 200 and 500 nM of CM-444 and CM-1758 for 48 h. Next, the differentiation assay was performed as described above.

[3] = tested on: HL-60; assay: Differentiation-apoptosis assay, CD11b / annexin-V / Sytox Green / myeloid markers flow cytometry; format: cell-based, human; parameters: Cell viability (%): concentration or dose not given beside the values; CD11b levels: unit not given here
In short: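 HL-60 cells were stained for the myeloid differentiation marker CD11b, with annexin-V and Sytox Green marking apoptosis and cell death. Cells were washed in PBS and resuspended at 1 × 10^6 cells/mL in binding buffer; marker staining of 1 million cells was for 30 min at room temperature in the dark, followed by red-cell lysis. Readout was flow cytometry.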

[4] = tested on: NB-4; assay: Differentiation assay, CD11b / annexin-V flow cytometry; format: cell-based; conditions: NB4 cell line; replicates 1-3 (Figure 2A)
Method: as §1

[5] = tested on: OCI-AML2; assay: as above; format: cell-based; conditions: OCI-AML-2 cell line; replicates 1-3 (Figure 2A)
Method: as §1

[6] = tested on: HEL; assay: as above; format: cell-based; conditions: HEL cell line; replicates 1-3 (Figure 2A)
Method: as §1

[7] = tested on: THP-1; assay: as above; format: cell-based; conditions: THP-1 cell line; replicates 1-3 (Figure 2A)
Method: as §1

[8] = tested on: MONO-MAC-6; assay: as above; format: cell-based; conditions: MONOMAC-6 cell line; replicates 1-3 (Figure 2A)
Method: as §1

[9] = tested on: TF-1; assay: as above; format: cell-based; conditions: TF-1 cell line; replicates 1-3 (Figure 2A);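 also: daily treatment at a GI50-based fraction of each compound's GI50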
Method: as §1

[10] = tested on: UT-7; assay: as above; format: cell-based; conditions: UT7 cell line; replicates 1-3 (Figure 2A)
Method: as §1

[11] = tested on: OCI-AML3; assay: as above; format: cell-based; conditions: OCI-AML-3 cell line; replicates 1-3 (Figure 2A)
Method: as §1

[12] = tested on: KASUMI-1; assay: as above; format: cell-based; conditions: KASUMI-1 cell line; replicates 1-3 (Figure 2A);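 also: daily treatment at a GI50-based fraction of each compound's GI50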
Method: as §1

[13] = tested on: M-O7e; assay: as above; format: cell-based; conditions: MO7e cell line; replicates 1-3 (Figure 2A);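 also: daily treatment at a GI50-based fraction of each compound's GI50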
Method: as §1

[14] = tested on: GF-D8; assay: as above; format: cell-based; conditions: GF-D8 cell line; replicates 1-3 (Figure 2A);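 also: daily treatment at a GI50-based fraction of each compound's GI50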
Method: as §1

[15] = MV4-11, 48 h treatment, replicates 1-3 (Suppl. Fig. 5A)
[16] = MV4-11, daily treatment, time 0 days
[17] = MV4-11, daily treatment, time 2 days
[18] = MV4-11, daily treatment, time 4 days
[19] = MV4-11, daily treatment, time 6 days
[20] = HL-60, 48 h treatment, replicates 1-3 (Suppl. Fig. 5A)
[21] = HL-60, daily treatment, time 0 days, replicates 1-3 (Figure 2B)
[22] = HL-60, daily treatment, time 2 days, replicates 1-3 (Figure 2B)
[23] = HL-60, daily treatment, time 4 days, replicates 1-3 (Figure 2B)
[24] = HL-60, daily treatment, time 6 days, replicates 1-3 (Figure 2B)
[25] = HL-60, daily treatment, time 8 days, replicates 1-3 (Figure 2B)

For `COc1cc2nc(-c3ccc(C)o3)cc(NCC3CCN(c4ncc(C(=O)NO)cn4)CC3)c2cc1OC` [CM-444, 2-[4-[[[6,7-dimethoxy-2-(5-methyl-2-furyl)-4-quinolyl]amino]methyl]-1-piperidyl]pyrimidine-5-carbohydroxamic acid], the “CD11b (%)” value ([1]; MV4-11, 48 h) was 58.9%, the “CD13 (%)” value ([1]; MV4-11, 48 h) was 98.0% and the “CD14 (%)” value ([1]; MV4-11, 48 h) was 57.6%. For the same molecule, the “HLA-DR (%)” value ([1]; MV4-11, 48 h) was 42.1%, the “CD11b (%)” value [1, 15] was 53.8% and 54.1% and 56.8% and the “Cell viability (%)” value [1, 15] was 72.5% and 67.1% and 68%. For the same molecule, the “differentiation level (CD11b)” value ([1]; MV4-11, after 6–8 days of treatment) was about 90%, the CD11b levels ([1]; MV4-11, daily treatment for 48 h, replicates 1-3 (Suppl. Fig. 9A)) was 39.5 and 43.7 and 45.9 and the “Annexin-V (%)” value [1, 16] was 5.32% and 4.14% and 5.2%. The “CD11b (%)” value [1, 16] was 11.1% and 6.62% and 5.25%, the “Annexin-V (%)” value [1, 17] was 28.1% and 26.8% and 25.7% and the “CD11b (%)” value [1, 17] was 30.2% and 35.8% and 36.8%. For the same molecule, the “Annexin-V (%)” value [1, 18] was 38.5% and 41.2% and 41.8%, the “CD11b (%)” value [1, 18] was 53.4% and 55% and 51.8% and the “Annexin-V (%)” value [1, 19] was 79.6% and 81.2% and 80.7%. The “CD11b (%)” value [1, 19] was 74.9% and 73.2% and 74.5%, the “CD11b (%)” value ([1]; MV4-11 cell line, replicates 1-3 (Figure 2A)) was 41.7% and 49.8% and 50.4% and the “CD11b (%)” value ([2]; primary AML patient sample 1 (Figure 2C)) was 46.62%. For the same molecule, the “CD11b (%)” value ([2]; primary AML patient sample 2 (Figure 2C)) was 31.74%, the “CD11b (%)” value ([2]; primary AML patient sample 3 (Figure 2C)) was 20.47% and the “CD11b (%)” value ([2]; primary AML patient sample 4 (Figure 2C)) was 39.54%. For the same molecule, the “CD11b (%)” value ([2]; primary AML patient sample 5 (Figure 2C)) was 32.14%, the “CD11b (%)” value ([2]; primary AML patient sample 6 (Figure 2C)) was 38.57% and the “CD11b (%)” value ([2]; primary AML patient sample 7 (Figure 2C)) was 49.19%. For the same molecule, the “CD11b (%)” value ([2]; primary AML patient sample 8 (Figure 2C)) was 23.69%, the “CD11b-positive cells (%)” value ([2]; sample AML-1, 200 nM) was 35.2% and the “CD11b-positive cells (%)” value ([2]; sample AML-1, 500 nM) was 46.6%. The “CD11b-positive cells (%)” value ([2]; sample AML-2, 200 nM) was 16.8%, the “CD11b-positive cells (%)” value ([2]; sample AML-2, 500 nM) was 31.7% and the “CD11b-positive cells (%)” value ([2]; sample AML-3, 200 nM) was 12.3%. For the same molecule, the “CD11b-positive cells (%)” value ([2]; sample AML-3, 500 nM) was 20.5%, the “CD11b-positive cells (%)” value ([2]; sample AML-4, 200 nM) was 20.8% and the “CD11b-positive cells (%)” value ([2]; sample AML-4, 500 nM) was 39.5%. For the same molecule, the “CD11b-positive cells (%)” value ([2]; sample AML-5, 200 nM) was 20.2%, the “CD11b-positive cells (%)” value ([2]; sample AML-5, 500 nM) was 32.1% and the “CD11b-positive cells (%)” value ([2]; sample AML-6, 200 nM) was 29.7%. For the same molecule, the “CD11b-positive cells (%)” value ([2]; sample AML-6, 500 nM) was 38.6%, the “CD11b-positive cells (%)” value ([2]; sample AML-7, 200 nM) was 32.9% and the “CD11b-positive cells (%)” value ([2]; sample AML-7, 500 nM) was 49.2%. The “CD11b-positive cells (%)” value ([2]; sample AML-8, 200 nM) was 15.3%, the “CD11b-positive cells (%)” value ([2]; sample AML-8, 500 nM) was 23.7% and the “percentage of CD11b” value ([3]; HL-60, 270 nM CM-444 or 300 nM CM-1758 daily for 4 days, before injection) was over 90%. The “CD11b (%)” value ([3]; HL-60, 48 h) was 74.3%, the “CD13 (%)” value ([3]; HL-60, 48 h) was 100% and the “CD14 (%)” value ([3]; HL-60, 48 h) was 21.5%. The “HLA-DR (%)” value ([3]; HL-60, 48 h) was 9.16%, the “CD11b (%)” value [3, 20] was 71.2% and 75.4% and 68.7% and the “Cell viability (%)” value [3, 20] was 78.5% and 72.1% and 82.5%. The “differentiation level (CD11b)” value ([3]; HL-60, after 6–8 days of treatment) was about 90%, the “Annexin V (%) Replicate 1” value ([3]; HL-60, daily 25% GI50, 48 h) was 0.75% and the “Annexin V (%) Replicate 2” value ([3]; HL-60, daily 25% GI50, 48 h) was 0.49%. For the same molecule, the “Annexin V (%) Replicate 3” value ([3]; HL-60, daily 25% GI50, 48 h) was 0.44%, the “CD11b (%) Replicate 1” value ([3]; HL-60, daily 25% GI50, 48 h) was 86.24% and the “CD11b (%) Replicate 2” value ([3]; HL-60, daily 25% GI50, 48 h) was 75.15%. The “CD11b (%) Replicate 3” value ([3]; HL-60, daily 25% GI50, 48 h) was 76.65%, the “Annexin-V (%)” value [3, 21] was 0% and 4.96% and 3.21% and the “CD11b (%)” value [3, 21] was 13.33% and 12.5% and 10.8%. For the same molecule, the “Annexin-V (%)” value [3, 22] was 6.83% and 2.49% and 5.41%, the “CD11b (%)” value [3, 22] was 79.45% and 76.2% and 73.9% and the “Annexin-V (%)” value [3, 23] was 0% and 2.98% and 3.14%. The “CD11b (%)” value [3, 23] was 95.2% and 93.5% and 90.4%, the “Annexin-V (%)” value [3, 24] was 9.4% and 2.53% and 5.87% and the “CD11b (%)” value [3, 24] was 93% and 97.3% and 95.8%. The “Annexin-V (%)” value [3, 25] was 0% and 4.09% and 6.81%, the “CD11b (%)” value [3, 25] was 98.61% and 98.5% and 97.1% and the “CD11b (%)” value ([3]; HL-60 cell line, replicates 1-3 (Figure 2A)) was 88.3% and 85.7% and 88.0%. For the same molecule, the CD11b levels ([3]; HL-60 treated daily for 48 h, replicates (Fig 6D)) was 76.5 and 85.9 and 92.1, the “CD11b (%)” value [4] was 46.5% and 38.3% and 33.9% and the “CD11b (%)” value [5] was 21.1% and 24.6% and 20.5%. The “CD11b (%)” value [6] was 12.7% and 10.5% and 8.2%, the “CD11b (%)” value [7] was 99.1% and 93.5% and 92.1% and the “CD11b (%)” value [8] was 69.4% and 75.8% and 60.6%. The “CD11b (%)” value [9] was 85.3% and 79.1% and 71.7%, the “CD11b (%)” value [10] was 16.8% and 20.4% and 21.0% and the “CD11b (%)” value [11] was 36.4% and 23.4% and 30.8%. For the same molecule, the “CD11b (%)” value [12] was 16.9% and 10.6% and 19.6%, the “CD11b (%)” value [13] was 5.2% and 11.2% and 10.9% and the “CD11b (%)” value [14] was 26.5% and 25.8% and 22.1%.
